For 19 molecules, Activity results are on record in ChEMBL document CHEMBL4619708, “Synthesis and biological evaluation of isoliquiritigenin derivatives as a neuroprotective agent against glutamate mediated neurotoxicity in HT22 cells” (2020).

Each structure is given as a SMILES string. The source made the active and inactive calls. The rule behind the calls is not given here.

Assay [1] has as its system HT-22. The assay is described as follows: Neuroprotection against glutamate-induced oxidative stress in mouse HT22 cells assessed as increase in cell viability pretreated with glutamate for 24 hrs followed by compound addition by calcein AM and PI staining based assay. It counts as functional.
For assay [2], the system named is HT-22. The assay is described as follows: Neuroprotection against glutamate-induced oxidative stress in mouse HT22 cells assessed as increase in cell viability by MTT assay. It counts as functional, cell-based.
In assay [3] the test system is HT-22. The assay is described as follows: Neuroprotection against glutamate-induced oxidative stress in mouse HT22 cells assessed as increase in cell viability at 100 uM pretreated with glutamate for 24 hrs followed by compound addition by calcein AM and PI staining based assay. It counts as functional.
For assay [4], the system named is HT-22. The assay is described as follows: Neuroprotection against glutamate-induced oxidative stress in mouse HT22 cells assessed as reduction in cellular ROS level by DCFDA staining based FACS analysis. It counts as functional, cell-based. In general terms: Flow cytometry measures light scatter and fluorescence of single cells or particles in a stream.
The test system of assay [5] is HT-22. The assay is described as follows: Neuroprotection against glutamate-induced oxidative stress in mouse HT22 cells assessed as reduction in Ca2+ influx pretreated with glutamate for 8 hrs followed by compound addition by Fluo3-AM staining based fluorescent microscopic method. It counts as functional, cell-based.
The test system of assay [6] is HT-22. The assay is described as follows: Neuroprotection against glutamate-induced oxidative stress in mouse HT22 cells assessed as reduction in Ca2+ influx pretreated with glutamate for 8 hrs followed by compound addition by Fluo3-AM staining based fluorescent microscopic method relative to control. It counts as functional. On the set-up: scale not given: the % may be the effect or the level left.

Assay [7] concerns HT-22. The assay is described as follows: Neuroprotection against glutamate-induced oxidative stress in mouse HT22 cells assessed as reduction in phosphorylated JNK protein level at 100 uM by Western blot analysis. The assay is classed as functional, cell-based. A general note: A western blot detects proteins with antibodies after separation by electrophoresis.
Assay [8] has as its system HT-22. The assay is described as follows: Neuroprotection against glutamate-induced oxidative stress in mouse HT22 cells assessed as reduction in phosphorylated ERK protein level at 100 uM by Western blot analysis. The assay is classed as functional, cell-based.
The subject of assay [9] is HT-22. The assay is described as follows: Neuroprotection against glutamate-induced oxidative stress in mouse HT22 cells assessed as reduction in phosphorylated p38 protein level at 100 uM by Western blot analysis. The assay is classed as functional, cell-based.
Assay [10] has as its system HT-22. As to the kind of experiment: Neuroprotection against glutamate-induced oxidative stress in mouse HT22 cells assessed as reduction in bax protein level at 100 uM by Western blot analysis. It counts as functional, cell-based.
The subject of assay [11] is HT-22. The assay is described as follows: Neuroprotection against glutamate-induced oxidative stress in mouse HT22 cells assessed as increase in bcl2 protein level at 100 uM by Western blot analysis. It counts as functional, cell-based.
The subject of assay [12] is HT-22. The assay is described as follows: Neuroprotection against glutamate-induced oxidative stress in mouse HT22 cells assessed as decrease in translocation of AIF to nucleus at 100 uM by Western blot analysis. It counts as functional, cell-based.
Assay [13] has as its system HT-22. The assay is described as follows: Neuroprotection against glutamate-induced oxidative stress in mouse HT22 cells assessed as apoptotic or dead cells pretreated with glutamate for 8 hrs followed by compound addition by annexin V and PI staining based assay (reference value: 2.58%). The assay is classed as functional.
Assay [14] concerns HT-22. As to the kind of experiment: Neuroprotective activity in mouse HT22 cells assessed as apoptotic or dead cells by annexin V and PI staining based assay (reference value: 2.58%). It counts as functional.
The subject of assay [15] is HT-22. As to the kind of experiment: Neuroprotection against glutamate-induced oxidative stress in mouse HT22 cells assessed as increase in cell viability at 3 to 6 uM pretreated with glutamate for 24 hrs followed by compound addition by calcein AM and PI staining based assay. It counts as functional.
Assay [16] has as its system HT-22. As to the kind of experiment: Neuroprotection against glutamate-induced oxidative stress in mouse HT22 cells assessed as increase in cell viability at 50 to 100 uM pretreated with glutamate for 24 hrs followed by compound addition by calcein AM and PI staining based assay. It counts as functional.

As for `O=C(/C=C/c1ccc(C(F)(F)F)cc1)c1ccc(O)cc1O`, the result with HT-22 [1] was inactive.

`O=C(/C=C/c1ccc2[nH]ccc2c1)c1ccc(O)cc1O`: the result in the assay on HT-22 [1] was Active.

With `O=C(/C=C/c1ccccc1)c1ccc(O)cc1O`, the result with HT-22 [1] was inactive.

Turning to `COc1cc(/C=C/C(=O)c2ccc(O)cc2O)cc(OC)c1Br`, in the assay with HT-22 [1], the result was inactive.

For `CN(C)c1ccc(/C=C/C(=O)c2ccc(O)cc2O)cc1`, the result in the assay with HT-22 [1], with HT-22 [2], in the assay with HT-22 [3], in the assay with HT-22 [4], with HT-22 [5] and with HT-22 [7] was Active. For the same molecule, the outcome in the assay on HT-22 [8], in the assay with HT-22 [9], in the assay on HT-22 [10], with HT-22 [11] and with HT-22 [12] was Active. Moreover, the Activity in the assay on HT-22 [6] is reported as 50%; in the assay on HT-22 [13], 6.4%; with HT-22 [14], 6.01%.

With `COc1ccc(/C=C/C(=O)c2ccc(O)cc2O)cc1OC`, the result in the assay on HT-22 [1] was inactive.

As for `CCn1c2ccccc2c2cc(/C=C/C(=O)c3ccc(O)cc3O)ccc21`, the result in the assay on HT-22 [1] was inactive.

As to `COc1cc(/C=C/C(=O)c2ccc(O)cc2O)cc(OC)c1OC`, the result with HT-22 [1] was inactive.

Turning to `CC(=O)N[C@@H](CS)C(=O)O`, in the assay with HT-22 [1], the outcome was inactive.

In the case of `O=C(/C=C/c1ccc(O)c(O)c1)c1ccc(O)cc1O`, in the assay on HT-22 [1], the outcome was inactive.

For the molecule `O=C(/C=C/c1ccc(-c2ccccc2)cc1)c1ccc(O)cc1O`, the outcome with HT-22 [1] was inactive.

For the molecule `COc1cc(Br)c(/C=C/C(=O)c2ccc(O)cc2O)cc1OC`, the outcome in the assay on HT-22 [1] was inactive. The result with HT-22 [15] was Active.

With `COc1cc(/C=C/C(=O)c2ccc(O)cc2O)ccc1O`, the result in the assay with HT-22 [1] was inactive.

Turning to `COc1cccc(/C=C/C(=O)c2ccc(O)cc2O)c1`, the result in the assay with HT-22 [1] was inactive.

On to `COc1ccc(/C=C/C(=O)c2ccc(O)cc2O)cc1`, for which the outcome in the assay on HT-22 [1] was inactive.

With `O=C(/C=C/c1cccc(O)c1)c1ccc(O)cc1O`, in the assay on HT-22 [1], the result was inactive.

Consider `O=C(/C=C/c1ccc2ccccc2c1)c1ccc(O)cc1O`, for which the outcome with HT-22 [1] was inactive.

For the molecule `O=C(/C=C/c1ccc(Cl)cc1)c1ccc(O)cc1O`, the result with HT-22 [1] was inactive.

On to `O=C(/C=C/c1ccc(O)cc1)c1ccc(O)cc1O`, for which the result in the assay with HT-22 [1] and in the assay with HT-22 [16] was inactive.
